IC50 data for 27 compounds are collected here from patent publication US11319283B2, “Substituted cyclobutylbenzene compounds as indoleamine 2,3-dioxygenase (IDO) inhibitors” (MERCK SHARP & DOHME CORP., priority 2017, dated 2022).

Each structure is given as a SMILES string. pIC50: −log10 of the molar value.

Assay [1] deals with IDO1 (Homo sapiens, UniProt P14902). Nature of the assay: IDO1 Cellular Assay in Hela Cells Stimulated with IFNγ. Particulars: Hela cells stimulated with IFNγ 100 ng/mL, 300 uM L-tryptophan, about 48 hours, fluorescence readout. More on the design: endogenous in cells; host or cells: HeLa cells stimulated with IFNγ (100 ng/mL). The assay is classed as cell-based. On the procedure: IDO1 Cellular Assay in Hela Cells Stimulated with IFNγ
Chain of IDO1 (P14902 whole entry): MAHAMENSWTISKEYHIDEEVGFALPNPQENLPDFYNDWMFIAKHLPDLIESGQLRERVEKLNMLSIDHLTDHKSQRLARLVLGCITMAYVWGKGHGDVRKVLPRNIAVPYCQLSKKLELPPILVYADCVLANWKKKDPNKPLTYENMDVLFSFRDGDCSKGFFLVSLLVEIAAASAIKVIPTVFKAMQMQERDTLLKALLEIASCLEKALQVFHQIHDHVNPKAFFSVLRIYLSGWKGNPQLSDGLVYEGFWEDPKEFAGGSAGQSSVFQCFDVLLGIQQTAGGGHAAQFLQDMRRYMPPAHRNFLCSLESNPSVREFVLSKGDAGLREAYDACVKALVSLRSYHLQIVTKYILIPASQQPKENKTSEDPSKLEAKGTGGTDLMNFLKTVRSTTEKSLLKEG
Hela cells were cultured in complete Hela culture medium (90% EMEM, 10% heat-inactivated fetal bovine serum) and expanded to about 1×10^9 cells. The cells were then collected and frozen down at 1×10^7 cells/vial in 1 mL frozen medium (90% complete Hela culture medium, 10% DMSO)
Compounds to be tested were serially diluted in ten 3-fold steps in DMSO starting from 10 mM DMSO stocks in Echo low volume plate(s).
Frozen Hela cells were thawed and transferred into Hela assay medium (99% complete Hela culture medium, 1% Pen/Strep) with 20 mL medium/vial of cells. The cells were spun down at 250 g in a table top centrifuge for 5 min and suspended in same volume of Hela assay medium. The cells were then counted and adjusted to a density of 2×10^5 cells/ml in Hela assay medium. Sterile L-tryptophan were added to the cells with final concentration of 300 uM L-tryptophan. A small aliquot (2 mL/plate) of Hela cells were set aside and were not treated with IFNγ, to serve as the Max-E control.
Hela cells with and without IFNγ were dispensed to the respective wells of 384-well assay plates containing the compounds. The plates were incubated for about 48 hours at a 37° C., 5% CO2 incubator. Afterwards, […] of 0.5 M methyl isonipecotate in dimethyl sulfoxide were added into each well and the plates were sealed and incubated at 37° C. without CO2 overnight. The plates were centrifuged for 1 min at 200×g. The resulting fluorescence was measured in a Spectramax plate reader (Molecular Devices) with a 400 nm excitation filter and a 510 nm emission filter.
Potencies were calculated by linear least squares fit to the four parameter logistic IC50 equation.

The target in assay [2] is T1, TDO (Homo sapiens, UniProt P48775).
T1 construct: endogenous in cells; host or cells: SW48 cells (A2780 cells as control with minimal TDO activity)
T1 sequence (P48775 whole entry): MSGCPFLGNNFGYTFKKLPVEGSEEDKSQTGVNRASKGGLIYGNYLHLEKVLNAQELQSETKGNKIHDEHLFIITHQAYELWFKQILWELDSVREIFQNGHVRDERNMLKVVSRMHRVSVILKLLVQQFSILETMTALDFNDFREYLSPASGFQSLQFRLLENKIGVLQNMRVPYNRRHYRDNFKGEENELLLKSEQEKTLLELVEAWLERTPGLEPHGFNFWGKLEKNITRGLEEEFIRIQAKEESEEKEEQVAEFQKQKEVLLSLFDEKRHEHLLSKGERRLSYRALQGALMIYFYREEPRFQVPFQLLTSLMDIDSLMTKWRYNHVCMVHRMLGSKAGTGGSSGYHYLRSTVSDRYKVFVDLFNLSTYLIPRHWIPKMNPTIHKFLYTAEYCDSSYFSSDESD
Nature of the assay: TDO Cellular Assay in Frozen SW48 Cells. The assay is classed as cell-based. To be noted: 300 uM L-tryptophan, about 48 hours, fluorescence readout. On the procedure:
TDO Cellular Assay in Frozen SW48 Cells
SW48 cells were cultured in complete RPMI culture medium (90% RPMI, 10% heat-inactivated fetal bovine serum).
Compounds to be tested were serially diluted in ten 3-fold steps in DMSO starting from 10 mM DMSO stocks in Echo low volume plate(s). […] The cells were spun down at 350 g in a table top centrifuge for 5 minutes and suspended in same volume of RPMI assay medium. […] Sterile L-tryptophan (Sigma, Cat # T0254) was added to the cells with final concentration of 300 uM.
SW48 and A2780 cells were dispensed to the respective wells of 384-well assay plates containing the compounds. The plates were incubated for about 48 hours at a 37° C., 5% CO2 incubator. Afterwards, 12 μL of 0.5 M ethyl isonipecotate (Sigma Aldrich, Cat # E33505) in dimethyl sulfoxide were added into each well and the plates were sealed and incubated at 37° C. without CO2 overnight. The plates were centrifuged for 1 minute at 200×g. The resulting fluorescence was measured in a Spectramax plate reader (Molecular Devices) with a 400 nm excitation filter and a 510 nm emission filter.
The fluorescence intensity of each well was corrected for the background observed in wells with A2780 cells and was expressed as a fraction of the intensity observed in wells of SW48 cells and DMSO only. Potencies were calculated by linear least squares fit to the four parameter logistic IC50 equation.

As usually defined, the pIC50 is the negative decadic logarithm of the IC50, by convention in mol/L. As to `CC1CC1NC(=O)C1(c2ccc(NC(=O)c3cccc(Cl)c3)cc2)CCC1` (single isomer, unassigned) [Example 22, 3-chloro-N-(4-(1-((2-methylcyclopropyl)carbamoyl)cyclobutyl)phenyl)benzamide], the negative-log IC50 (pIC50) in assay [1] was 7.46; in assay [2], at most 5.00.
For `CC1CC1NC(=O)C1(c2ccc(NC(=O)c3cccc(Cl)c3)cc2)CCC1` (single isomer, unassigned) [Example 23, 3-chloro-N-(4-(1-((2-methylcyclopropyl)carbamoyl)cyclobutyl)phenyl)benzamide], in that order: 7.11 and at most 5.00.
`CCCC(=O)NC1(c2ccc(NC(=O)c3cccc(Cl)c3)cc2)CCC1` [Example 1, N-(4-(1-Butyramidocyclobutyl)phenyl)-3-chlorobenzamide] showed a pIC50 in assay [1] of 7.32.
With `O=C(Nc1ccc(C2(NC(=O)c3cnccn3)CCC2)cc1)c1cccc(Cl)c1` [Example 3, N-(1-{4-[(3-chlorobenzene-1-carbonyl)amino]phenyl}cyclobutyl)pyrazine-2-carboxamide], the negative logarithm of the IC50 (pIC50) in assay [1] is 6.88; in assay [2], at most 5.00.
Turning to `O=C(Nc1ccc(C2(NC(=O)c3ncccc3Cl)CCC2)cc1)c1cccc(Cl)c1` [Example 4, 3-chloro-N-(1-{4-[(3-chlorobenzene-1-carbonyl)amino]phenyl}cyclobutyl)pyridine-2-carboxamide], the negative-log IC50 (pIC50) in assay [1] is 6.87; in assay [2], at most 5.00.
The corresponding values for `O=C(Nc1ccc(C2(NC(=O)c3cc(Cl)ccn3)CCC2)cc1)c1cccc(Cl)c1` [Example 5, 4-chloro-N-(1-{4-[(3-chlorobenzene-1-carbonyl)amino]phenyl}cyclobutyl)pyridine-2-carboxamide] are 6.87 and at most 5.00.
On to `Cn1ccnc1C(=O)NC1(c2ccc(NC(=O)c3cccc(Cl)c3)cc2)CCC1` [Example 6, N-(1-{4-[(3-chlorobenzene-1-carbonyl)amino]phenyl}cyclobutyl)-1-methyl-1H-imidazole-2-carboxamide], for which the pIC50 is 6.24 in assay [1] and at most 5.00 in assay [2].
The corresponding values for `O=C(Nc1ccc(C2(NC(=O)c3ccc(Cl)c(F)c3)CCC2)cc1)c1cccc(Cl)c1` [Example 8, 4-chloro-N-(1-{4-[(3-chlorobenzene-1-carbonyl)amino]phenyl}cyclobutyl)-3-fluorobenzamide] are 8.40 and at most 5.00.
For the compound `O=C(Nc1ccc(C2(NC(=O)c3ccc(Cl)cn3)CCC2)cc1)c1cccc(Cl)c1` [Example 9, 5-chloro-N-(1-{4-[(3-chlorobenzene-1-carbonyl)amino]phenyl}cyclobutyl)pyridine-2-carboxamide], the figures for the pIC50 in assay [1] and in assay [2] were 7.96 and at most 5.00, respectively.
Take `O=C(Nc1ccc(C2(NC(=O)c3ccc(F)c(F)c3)CCC2)cc1)c1cccc(Cl)c1` [Example 10, N-(1-{4-[(3-chlorobenzene-1-carbonyl)amino]phenyl}cyclobutyl)-3,4-difluorobenzamide]: the negative-log IC50 (pIC50) in assay [1] was 7.85; in assay [2] it was at most 5.00.
For `O=C(Nc1ccc(C2(NC(=O)c3ccc(Cl)c(Cl)c3)CCC2)cc1)c1cccc(Cl)c1` [Example 11, 3,4-dichloro-N-(1-{4-[(3-chlorobenzene-1-carbonyl)amino]phenyl}cyclobutyl)benzamide], the pIC50 in assay [1] was 7.72; in assay [2], at most 5.00.
As for `Cn1ccc(C(=O)NC2(c3ccc(NC(=O)c4cccc(Cl)c4)cc3)CCC2)n1` [Example 13, N-(1-{4-[(3-chlorobenzene-1-carbonyl)amino]phenyl}cyclobutyl)-1-methyl-1H-pyrazole-3-carboxamide], the pIC50 in assay [1] is 7.52; in assay [2] it was at most 5.00.
Take `O=C(Nc1ccc(C2(NC(=O)c3cocn3)CCC2)cc1)c1cccc(Cl)c1` [Example 16, N-(1-{4-[(3-chlorobenzene-1-carbonyl)amino]phenyl}cyclobutyl)-1,3-oxazole-4-carboxamide]: the negative-log IC50 (pIC50) in assay [1] was 7.04; in assay [2] it was at most 5.00.
For `O=C(Nc1ccc(C2(C(=O)Nc3ccc(Cl)cc3)CCC2)cc1)c1cccc(Cl)c1` [Example 24, 3-chloro-N-(4-{1-[(4-chlorophenyl)carbamoyl]cyclobutyl}phenyl) benzamide], in that order: 8.52 and at most 5.00.
Take `O=C(Nc1ccc(C2(C(=O)NC3CC(F)(F)C3)CCC2)cc1)c1cccc(Cl)c1` [Example 38, 3-chloro-N-(4-{1-[(3,3-difluorocyclobutyl)carbamoyl]cyclobutyl}phenyl) benzamide]: the negative-log IC50 (pIC50) in assay [1] is 7.51.
The same measure, in the same setting: in the case of `O=C(Nc1ccc(C2(C(=O)NC34CC(C3)C4)CCC2)cc1)c1cccc(Cl)c1` [Example 39, N-(4-{1-[(bicyclo[1.1.1]pentan-1-yl)carbamoyl]cyclobutyl}phenyl)-3-chlorobenzamide] it was 7.47; in that of `CC(NC(=O)C1(c2ccc(NC(=O)c3cccc(Cl)c3)cc2)CCC1)C1CC1` (stereo not shown) [Example 41, 3-chloro-N-(4-{1-[(1-cyclopropylethyl)carbamoyl]cyclobutyl}phenyl) benzamide], 7.00; in that of `CC(NC(=O)C1(c2ccc(NC(=O)c3cccc(Cl)c3)cc2)CCC1)C1CCCO1` (stereo not shown) [Example 43, 3-chloro-N-[4-(1-{[1-(oxolan-2-yl)ethyl]carbamoyl}cyclobutyl)phenyl]benzamide], 6.18.
Same read-out and setting: in the case of `CC1CC1NC(=O)C1(c2ccc(NC(=O)c3cccc(Cl)c3)cc2)CCC1` (stereo not shown) [Example 46, 3-chloro-N-(4-{1-[(2-methylcyclopropyl)carbamoyl]cyclobutyl}phenyl) benzamide] it was 7.89; in that of `O=C(Nc1ccc(C2(C(=O)NCCC(F)(F)F)CCC2)cc1)c1cccc(Cl)c1` [Example 47, 3-chloro-N-(4-{1-[(3,3,3-trifluoropropyl)carbamoyl]cyclobutyl}phenyl) benzamide], 7.59.
With `O=C(Nc1ccc(C2(C(=O)NCC3CC3)CCC2)cc1)c1cccc(Cl)c1` [Example 48, 3-chloro-N-(4-{1-[(cyclopropylmethyl)carbamoyl]cyclobutyl}phenyl)benzamide], in assay [1], the pIC50 is 7.57.
The compound `CCNC(=O)C1(c2ccc(NC(=O)c3cccc(Cl)c3)cc2)CCC1` [Example 50] gave a pIC50 in assay [1] of 6.82.
On the same count and under the same terms, the figure for `CCCNC(=O)C1(c2ccc(NC(=O)c3nnsc3C)cc2)CCC1` [Example 54, 5-Methyl-N-(4-(1-(propylcarbamoyl)cyclobutyl)phenyl)-1,2,3-thiadiazole-4-carboxamide] is 6.30; for `CCCNC(=O)C1(c2ccc(NC(=O)c3ccc(CN)cc3)cc2)CCC1` [Example 55, 4-(aminomethyl)-N-{4-[1-(propylcarbamoyl)cyclobutyl]phenyl} benzamide] it is 6.21; for `CCCNC(=O)C1(c2ccc(NC(=O)c3cc(C)no3)cc2)CCC1` [Example 56, 3-methyl-N-{4-[1-(propylcarbamoyl)cyclobutyl]phenyl}-1,2-oxazole-5-carboxamide] it is 6.03.
On the same count and under the same terms, in the case of `CCCNC(=O)C1(c2ccc(NC(=O)c3coc(CC)n3)cc2)CCC1` [Example 57, 2-ethyl-N-{4-[1-(propylcarbamoyl)cyclobutyl]phenyl}-1,3-oxazole-4-carboxamide] it was 5.77; in that of `CCCNC(=O)C1(c2ccc(NC(=O)c3cn4ncccc4n3)cc2)CCC1` [Example 58, N-{4-[1-(propylcarbamoyl)cyclobutyl]phenyl}imidazo[1,2-b]pyridazine-2-carboxamide], 5.70.
